Assay results reported in US5496546A, “Compositions and methods of application of reactive antiviral polyadenylic acid derivatives” (priority 1994, dated 1996).

How the values were obtained:
murine leukemia RT = murine leukemia RT (Moloney murine leukemia virus, UniProt P03355); settings: cited from earlier work
HIV-1 RT (wild type) = molecular target: T1, HIV-1 RT (wild type) (Human immunodeficiency virus type 1 group M subtype B, UniProt P04585); assay: Inhibition of different HIV RTs, poly C-[dG]12-18 template; format: biochemical; settings: poly C-[dG]12-18, [^3 H]dGTP; approximate
T1 construct: HIV-1 RT (wild type)

HIV-2 (wild type) = molecular target: T2, HIV-2 (wild type) (Human immunodeficiency virus type 2 subtype A, UniProt P04584); assay: as above; format: biochemical; settings: poly C-[dG]12-18, [^3 H]dGTP; approximate
T2 construct: with the RT from four different strains of the human virus: HIV-1 RT (wild type), HIV-2 (wild type)

[1] = molecular target: HIV-141,215 RT (AZT-resistant mutant, Thr 215→Tyr, Met 41→Leu) (Human immunodeficiency virus type 1 group M subtype B, UniProt P04585, M628L/T802Y); assay: as above; format: biochemical, HIV-1; settings: poly C-[dG]12-18, [^3 H]dGTP; approximate
[2] = molecular target: T3, HIV-1181c RT (Nevirapine-resistant mutant) (Human immunodeficiency virus type 1 group M subtype B, UniProt P04585, Y768C); assay: as above; format: biochemical, HIV-1; settings: poly C-[dG]12-18, [^3 H]dGTP; approximate
T3 construct: HIV-1181c RT (Nevirapine-resistant mutant)

HIV RT = molecular target: T4, HIV RT (Human immunodeficiency virus type 1 group M subtype B, UniProt P04585); assay: Inhibition of viral reverse transcriptase in solution, HIV RT; format: biochemical
T4 construct: Reverse transcriptase samples from HIV (HIV RT)
Protocol: Reverse transcriptase samples from HIV (HIV RT) and from Moloney murine leukemia virus (MLV RT) and from avian myeloblastosis virus (AMV RT) were separately incubated with FDNP-poly[A] at 25° C. in a Tris-HCl buffer (0.1M, pH 8.2) containing 1 mM MgCl2 and 125 mM KCl and measured for RT activity. In each experiment, the selected enzyme was incubated for 10 minutes at 25° C. in an incubation mixture containing the potassium salt of the inhibitor at a given concentration. After ten minutes the incubated mixture was rapidly injected into an assay solution and further incubated for 10 min at 37° C., then precipitated with trichloroacetic acid, washed, and assayed for the radioactive polynucleotide formed by scintillation counting. The assay mixture contained 125 mM Tris-HCl (pH 8.2), 1 mM MgCl2, 125 mM KCl, 250 μM [^3 H]dTTP as the substrate and 23 nM Poly[A]-[dT],12 as the template.
Similar results were obtained with DNP-poly[A].

T2 sequence (P04584 613-1171 limits assumed): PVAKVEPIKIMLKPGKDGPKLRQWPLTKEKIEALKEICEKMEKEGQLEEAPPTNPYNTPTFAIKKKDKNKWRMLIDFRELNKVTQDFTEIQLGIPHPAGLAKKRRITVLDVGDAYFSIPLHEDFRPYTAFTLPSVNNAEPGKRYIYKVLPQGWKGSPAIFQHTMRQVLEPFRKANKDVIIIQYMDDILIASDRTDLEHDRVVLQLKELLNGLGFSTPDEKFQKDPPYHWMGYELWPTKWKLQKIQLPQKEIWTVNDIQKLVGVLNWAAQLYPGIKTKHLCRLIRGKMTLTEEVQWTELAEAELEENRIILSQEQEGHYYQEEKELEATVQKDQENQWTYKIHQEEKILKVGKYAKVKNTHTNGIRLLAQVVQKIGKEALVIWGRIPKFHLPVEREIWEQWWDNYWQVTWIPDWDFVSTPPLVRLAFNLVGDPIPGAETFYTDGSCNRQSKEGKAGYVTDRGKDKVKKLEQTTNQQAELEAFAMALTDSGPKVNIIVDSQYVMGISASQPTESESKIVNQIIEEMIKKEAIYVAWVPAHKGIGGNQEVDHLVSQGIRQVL
T2 sequence (P04584 613-1052 partner limits assumed): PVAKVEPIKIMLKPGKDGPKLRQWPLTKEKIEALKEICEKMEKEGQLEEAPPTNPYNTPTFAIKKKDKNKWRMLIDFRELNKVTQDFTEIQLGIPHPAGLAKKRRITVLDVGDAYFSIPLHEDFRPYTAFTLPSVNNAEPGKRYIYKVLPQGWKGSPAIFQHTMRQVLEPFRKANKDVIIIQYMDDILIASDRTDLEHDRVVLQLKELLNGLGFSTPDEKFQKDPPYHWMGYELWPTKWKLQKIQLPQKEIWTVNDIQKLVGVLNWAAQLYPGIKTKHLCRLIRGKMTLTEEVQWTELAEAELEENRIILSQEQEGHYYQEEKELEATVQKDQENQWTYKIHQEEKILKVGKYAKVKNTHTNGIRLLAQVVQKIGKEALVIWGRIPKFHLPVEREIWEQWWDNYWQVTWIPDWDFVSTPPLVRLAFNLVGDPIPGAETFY

poly(2-fluoroadenylic acid) [(fl^2 A)n]
IC50 (murine leukemia RT): 0.04 µg/mL

polyadenylic acid (5') [Poly[A]]
IC50 of the RT, HIV-1 (wild) (HIV-1 RT (wild type)): no inhibitory effect | IC50 of the RT, HIV-2 (wild) (HIV-2 (wild type)): no inhibitory effect | IC50 of the RT, HIV-141,215 [1]: no inhibitory effect | IC50 of the RT, HIV-1181C [2]: no inhibitory effect

Nc1ncnc2c1ncn2[C@@H]1O[C@H](COP(=O)(O)OP(=O)(O)O)[C@@H](Oc2cc(F)c([N+](=O)[O-])cc2[N+](=O)[O-])[C@H]1O [3'-O-(5-fluoro-2,4-dinitrophenyl) ADP ether]
molar concentration required to inhibit HIV RT (HIV RT): million-fold higher molar concentration

Nc1ncnc2c1ncn2[C@@H]1O[C@H](COP(=O)(O)OP(=O)(O)OP(=O)(O)O)[C@@H](Oc2cc(F)c([N+](=O)[O-])cc2[N+](=O)[O-])[C@H]1O [the corresponding ATP ether, 3'-O-(5-fluoro-2,4-dinitrophenyl) ATP ether]
molar concentration required to inhibit HIV RT (HIV RT): million-fold higher molar concentration
